Data as given in ChEMBL document CHEMBL1201861, “Genomics of Drug Sensitity in Cancer screening data, Wellcome Trust Sanger Institute”.
Where a name gives a salt, the structure may show the parent alone.

Tests used:
SKM-1 = assay: SANGER: Inhibition of human SKM-1 cell growth in a cell viability assay.; format: functional, cell-based
ECC12 = assay: cells; format: functional, cell-based; settings: Homo sapiens
Description: SANGER: Inhibition of human ECC12 cell growth in a cell viability assay.

EW-12 = assay: SANGER: Inhibition of human EW-12 cell growth in a cell viability assay.; format: functional, cell-based
NCI-H128 = assay: SANGER: Inhibition of human NCI-H128 cell growth in a cell viability assay.; format: functional, cell-based
CP67-MEL = assay: SANGER: Inhibition of human CP67-MEL cell growth in a cell viability assay.; format: functional, cell-based
RT-4 = assay: SANGER: Inhibition of human RT4 cell growth in a cell viability assay.; format: functional, cell-based
HCC1143 = assay: cells; format: functional, cell-based, Homo sapiens;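 note: growth inhibition of human HCC1143 cells, read out with a cell viability assay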
Description: SANGER: Inhibition of human HCC1143 cell growth in a cell viability assay.

IPC-298 = assay: SANGER: Inhibition of human IPC-298 cell growth in a cell viability assay.; format: functional, cell-based
DV-90 = assay: cells; format: functional, cell-based, Homo sapiens;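 note: Read-out is a viability assay, with IC50 reflecting the drop in DV-90 cell growth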
Description: SANGER: Inhibition of human DV-90 cell growth in a cell viability assay.

Calu-1 = assay: SANGER: Inhibition of human Calu-1 cell growth in a cell viability assay.; format: functional, cell-based
MFE-296 = assay: SANGER: Inhibition of human MFE-296 cell growth in a cell viability assay.; format: functional, cell-based
SK-CO-1 = assay: cells; format: functional, cell-based, Homo sapiens;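 note: growth inhibition of SK-CO-1 cells, determined by a viability readout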
Description: SANGER: Inhibition of human SK-CO-1 cell growth in a cell viability assay.

PLC-PRF-5 = assay: cells; format: functional, cell-based, Homo sapiens;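 note: growth inhibition of human PLC-PRF-5 cells, read out with a viability assay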
Description: SANGER: Inhibition of human PLC-PRF-5 cell growth in a cell viability assay.

SNG-M = assay: cells; format: functional, cell-based, Homo sapiens
Description: SANGER: Inhibition of human SNG-M cell growth in a cell viability assay.

CCF-STTG1 = assay: cells; format: functional, cell-based, Homo sapiens;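 note: growth inhibition of human CCF-STTG1 cells, determined with a cell viability read-out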
Description: SANGER: Inhibition of human CCF-STTG1 cell growth in a cell viability assay.

TT = assay: cells; format: functional, cell-based, Homo sapiens
Description: SANGER: Inhibition of human TT cell growth in a cell viability assay.

EFE-184 = assay: cells; format: functional, cell-based, Homo sapiens
Description: SANGER: Inhibition of human EFE-184 cell growth in a cell viability assay.

TI-73 = assay: cells; format: functional, cell-based, Homo sapiens;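 note: cell viability assay measuring how much compounds suppress growth of the cultured cell line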
Description: SANGER: Inhibition of human TI-73 cell growth in a cell viability assay.

NCI-H1975 = assay: cells; format: functional, cell-based, Homo sapiens
Description: SANGER: Inhibition of human NCI-H1975 cell growth in a cell viability assay.

NBsusSR = assay: cells; format: functional, cell-based, Homo sapiens;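 note: growth inhibition of the human cell line, read out with a cell viability assay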
Description: SANGER: Inhibition of human NBsusSR cell growth in a cell viability assay.

RH-18 = assay: cells; format: functional, cell-based, Homo sapiens;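 note: growth inhibition of human RH-18 cells, read out with a cell viability assay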
Description: SANGER: Inhibition of human RH-18 cell growth in a cell viability assay.

BALL-1 = assay: cells; format: functional, cell-based, Homo sapiens;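 note: growth inhibition of BALL-1 cells, read out with a cell viability assay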
Description: SANGER: Inhibition of human BALL-1 cell growth in a cell viability assay.

ECC10 = assay: cells; format: functional, cell-based, Homo sapiens;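 note: growth inhibition of ECC10 cells, read out by a cell viability assay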
Description: SANGER: Inhibition of human ECC10 cell growth in a cell viability assay.

Row | Compound | IC50 (SKM-1) [µM] | IC50 (EW-12) [µM] | IC50 (NCI-H128) [µM] | IC50 (RT-4; Homo sapiens, RT-4) [nM] | IC50 (HCC1143; Homo sapiens, HCC1143) [nM] | IC50 (IPC-298; Homo sapiens, IPC-298) [nM] | IC50 (DV-90; Homo sapiens, DV-90) [nM] | IC50 (Calu-1; Homo sapiens, Calu-1) [nM] | IC50 (MFE-296; Homo sapiens, MFE-296) [nM] | IC50 (SK-CO-1; Homo sapiens, SK-CO-1) [nM] | IC50 (PLC-PRF-5; Homo sapiens, PLC-PRF-5) [nM] | IC50 (SNG-M; Homo sapiens, SNG-M) [nM] | IC50 (CCF-STTG1; Homo sapiens, CCF-STTG1) [µM] | IC50 (TT; Homo sapiens, TT) [µM] | IC50 (EFE-184; Homo sapiens, EFE-184) [µM] | also measured
1 | COc1cc(N2CCN(C)CC2)ccc1Nc1ncc2c(n1)N(C)c1ccccc1C(=O)N2C | > 8 | > 8 | > 8 | – | – | – | – | – | – | – | – | – | – | – | – | IC50 (ECC12): > 8 µM
2 | COc1cc(-c2nn([C@H]3CC[C@H](N4CCN(C(C)=O)CC4)CC3)c3ncnc(N)c23)ccc1NC(=O)c1cc2ccccc2n1C | > 5.12 | > 5.12 | > 5.12 | – | – | – | – | – | – | – | – | – | – | – | – | IC50 (CP67-MEL): > 5120 nM
3 | Cc1cc([N+](=O)[O-])ccc1NS(=O)(=O)c1cc(Cl)ccc1Cl | – | – | – | > 32000 | 1820 | 2690 | 1940 | 8640 | 4700 | 13400 | 1170 | 2770 | 12.8 | 9.13 | 5.8 | –
4 | OCCCNc1cc(-c2ccnc(Nc3cccc(Cl)c3)n2)ccn1 | > 0.256 | > 0.256 | > 0.256 | – | – | – | – | – | – | – | – | – | – | – | – | IC50 (CP67-MEL): 52 nM
5 | Oc1ccc2ccccc2c1SSc1c(O)ccc2ccccc12 | – | – | – | > 32000 | > 32000 | > 32000 | > 32000 | > 32000 | > 32000 | > 32000 | > 32000 | > 32000 | > 32 | > 32 | > 32 | –
6 | Cc1ccc(-c2c(C(=O)CCl)n(CCCO)c3ncnc(N)c23)cc1 | > 4 | > 4 | 3.1 | – | – | – | – | – | – | – | – | – | – | – | – | IC50 (CP67-MEL): > 4000 nM
7 | C=C(c1ccc(C(=O)O)cc1)c1cc2c(cc1C)C(C)(C)CCC2(C)C [BEXAROTENE] | – | – | – | > 8000 | > 8000 | > 8000 | > 8000 | > 8000 | > 8000 | > 8000 | > 8000 | > 8000 | > 8 | > 8 | > 8 | –
8 | CCC/C=C/C=C/C(=O)O[C@H]1/C(=C/C(=O)OC)C[C@H]2C[C@H]([C@@H](C)O)OC(=O)C[C@H](O)C[C@@H]3C[C@H](OC(C)=O)C(C)(C)[C@](O)(C[C@@H]4C/C(=C/C(=O)OC)C[C@H](/C=C/C(C)(C)[C@]1(O)O2)O4)O3 [BRYOSTATIN 1] | – | – | – | > 8 | > 8 | > 8 | > 8 | > 8 | > 8 | > 8 | > 8 | > 8 | > 0.008 | > 0.008 | > 0.008 | –
9 | COc1cccc2c1C(=O)c1c(O)c3c(c(O)c1C2=O)C[C@@](O)(C(=O)CO)C[C@@H]3O[C@H]1C[C@H](N)[C@H](O)[C@H](C)O1 [DOXORUBICIN] | – | – | – | > 1020 | > 1020 | 196 | 329 | 73.6 | 70.5 | 129 | 901 | 18.3 | 0.0355 | > 1.02 | > 1.02 | –
10 | C#Cc1cccc(Nc2ncnc3cc(OCCOC)c(OCCOC)cc23)c1 [ERLOTINIB] | > 2 | > 2 | > 2 | – | – | – | – | – | – | – | – | – | – | – | – | IC50 (ECC12): 0.0805 µM
11 | Nc1ccn([C@@H]2O[C@H](CO)[C@@H](O)C2(F)F)c(=O)n1 [GEMCITABINE] | – | – | – | > 1020 | > 1020 | 255 | > 1020 | 220 | 51.4 | 34 | > 1020 | < 4 | 0.0314 | > 1.02 | > 1.02 | –
12 | O=C(O)c1ccc(-c2c[nH]c3ncc(-c4ccccc4)cc23)cc1C1CCCC1 [GSK-650394] | – | – | – | > 16000 | > 16000 | > 16000 | > 16000 | > 16000 | 11300 | > 16000 | > 16000 | 1800 | 12.6 | > 16 | > 16 | –
13 | COc1cc2ncn(-c3cc(OCc4ccccc4C(F)(F)F)c(C(N)=O)s3)c2cc1OC [GW843682X] | > 0.256 | > 0.256 | > 0.256 | – | – | – | – | – | – | – | – | – | – | – | – | IC50 (CP67-MEL): 116 nM
14 | Nc1cccc2c1CN(C1CCC(=O)NC1=O)C2=O (configuration not stated) [LENALIDOMIDE] | – | – | – | – | – | – | – | – | – | – | – | – | – | – | – | IC50 (TI-73; Homo sapiens, TI-73): > 5 µM; IC50 (NCI-H1975; Homo sapiens, NCI-H1975): > 5 µM; IC50 (NBsusSR; Homo sapiens, NBsusSR): > 5 µM; IC50 (RH-18; Homo sapiens, Rh18): > 5 µM; IC50 (BALL-1; Homo sapiens, BALL-1): > 5 µM; IC50 (ECC10; Homo sapiens, ECC10): > 5 µM
15 | CN(C)C(=N)NC(=N)N [METFORMIN] | – | – | – | – | – | – | – | – | – | – | – | – | – | – | – | IC50 (TI-73; Homo sapiens, TI-73): 13600 µM; IC50 (NCI-H1975; Homo sapiens, NCI-H1975): 11700 µM; IC50 (NBsusSR; Homo sapiens, NBsusSR): 9190 µM; IC50 (BALL-1; Homo sapiens, BALL-1): > 20000 µM; IC50 (ECC10; Homo sapiens, ECC10): 2280 µM
16 | Cc1cn(-c2cc(NC(=O)c3ccc(C)c(Nc4nccc(-c5cccnc5)n4)c3)cc(C(F)(F)F)c2)cn1 [NILOTINIB] | – | – | – | – | – | – | – | – | – | – | – | – | – | – | – | IC50 (TI-73; Homo sapiens, TI-73): > 2 µM; IC50 (NCI-H1975; Homo sapiens, NCI-H1975): > 2 µM; IC50 (NBsusSR; Homo sapiens, NBsusSR): > 2 µM; IC50 (RH-18; Homo sapiens, Rh18): > 2 µM; IC50 (BALL-1; Homo sapiens, BALL-1): > 2 µM; IC50 (ECC10; Homo sapiens, ECC10): > 2 µM
17 | COC1=CC(c2cc3ccccc3[nH]2)=N/C1=C\c1[nH]c(C)cc1C [OBATOCLAX MESYLATE] | – | – | – | 1600 | 174 | < 62.5 | 1760 | 313 | 139 | 2620 | 1150 | < 62.5 | 0.926 | > 16 | 7.32 | –
18 | CC(=O)O[C@H]1C(=O)[C@@]2(C)[C@H]([C@H](OC(=O)c3ccccc3)[C@]3(O)C[C@H](OC(=O)[C@H](O)[C@@H](NC(=O)c4ccccc4)c4ccccc4)C(C)=C1C3(C)C)[C@]1(OC(C)=O)CO[C@@H]1C[C@@H]2O [PACLITAXEL] | > 0.102 | > 0.102 | > 0.102 | – | – | – | – | – | – | – | – | – | – | – | – | IC50 (CP67-MEL): 68.1 nM
19 | N[C@@H](CSC(c1ccccc1)(c1ccccc1)c1ccccc1)C(=O)O [S-TRITYL-L-CYSTEINE] | > 5.12 | > 5.12 | > 5.12 | – | – | – | – | – | – | – | – | – | – | – | – | IC50 (CP67-MEL): 2390 nM
20 | CC[C@H](CO)Nc1nc(NCc2ccccc2)c2ncn(C(C)C)c2n1 [SELICICLIB] | > 16 | > 16 | > 16 | – | – | – | – | – | – | – | – | – | – | – | – | IC50 (ECC12): > 16 µM
21 | CCN(CC)CCNC(=O)c1c(C)[nH]c(/C=C2\C(=O)Nc3ccc(F)cc32)c1C [SUNITINIB] | > 8 | > 8 | > 8 | – | – | – | – | – | – | – | – | – | – | – | – | IC50 (CP67-MEL): > 8000 nM
22 | CO[C@H]1C[C@@H]2CC[C@@H](C)[C@@](O)(O2)C(=O)C(=O)N2CCCC[C@H]2C(=O)O[C@H]([C@H](C)C[C@@H]2CC[C@@H](OC(=O)C(C)(CO)CO)[C@H](OC)C2)CC(=O)[C@H](C)/C=C(\C)[C@@H](O)[C@@H](OC)C(=O)[C@H](C)C[C@H](C)/C=C/C=C/C=C/1C [TEMSIROLIMUS] | – | – | – | – | – | – | – | – | – | – | – | – | – | – | – | IC50 (TI-73; Homo sapiens, TI-73): > 0.2 µM; IC50 (NCI-H1975; Homo sapiens, NCI-H1975): > 0.2 µM; IC50 (NBsusSR; Homo sapiens, NBsusSR): 0.0213 µM; IC50 (RH-18; Homo sapiens, Rh18): > 0.2 µM; IC50 (BALL-1; Homo sapiens, BALL-1): > 0.2 µM; IC50 (ECC10; Homo sapiens, ECC10): > 0.2 µM
23 | CS(=O)(=O)c1ccc(C(=O)Nc2ccc(Cl)c(-c3ccccn3)c2)c(Cl)c1 [VISMODEGIB] | – | – | – | – | – | – | – | – | – | – | – | – | – | – | – | IC50 (TI-73; Homo sapiens, TI-73): > 10 µM; IC50 (NCI-H1975; Homo sapiens, NCI-H1975): > 10 µM; IC50 (NBsusSR; Homo sapiens, NBsusSR): > 10 µM; IC50 (RH-18; Homo sapiens, Rh18): > 10 µM; IC50 (BALL-1; Homo sapiens, BALL-1): > 10 µM
24 | BLEOMYCIN | – | – | – | – | – | – | – | – | – | – | – | – | – | – | – | IC50 (RT-4; rt-4): 5.86 nM; IC50 (HCC1143; hcc1143): 27200 nM; IC50 (IPC-298; ipc-298): 2210 nM; IC50 (DV-90; dv-90): 182000 nM; IC50 (Calu-1; calu-1): 5140 nM; IC50 (MFE-296; mfe-296): 153 nM; IC50 (SK-CO-1; sk-co-1): 247 nM; IC50 (PLC-PRF-5; plc-prf-5): 281000 nM; IC50 (SNG-M; sng-m): 831 nM; IC50 (CCF-STTG1; ccf-sttg1): 4.56 µM; IC50 (TT; tt): 59.2 µM; IC50 (EFE-184; efe-184): 383 µM
25 | CISPLATIN | – | – | – | – | – | – | – | – | – | – | – | – | – | – | – | IC50 (TI-73; ti-73): 8.53 µM; IC50 (NCI-H1975; nci-h1975): 409 µM; IC50 (NBsusSR; nbsussr): 1.33 µM; IC50 (RH-18; rh-18): 353 µM; IC50 (BALL-1; ball-1): 75.9 µM; IC50 (ECC10; ecc10): 258 µM
